The numbers were not newly measured in patent publication US10487297B2, “Environmentally preferred antimicrobial compositions” (CHEMLINK LABORATORIES, LLC, priority 2013, dated 2019), which cites them from elsewhere.

Structures are written as SMILES.

Usually pKa stands for the negative logarithm of the acid dissociation constant. Consider `CC(=O)N(CCN(C(C)=O)C(C)=O)C(C)=O` [TAED, N,N,N′N′-tetraacetylethylenediamine], for which the pKa is recorded as 8.
